According to publication doi:10.1101/2025.11.25.689777, “NanoBRET Tracer Development for Class I Bromodomain Target Engagement in Live Cells” (bioRxiv, 2025):
Where two headings read alike, the source gives them in different places.

Legend:
BPTF-BRD-Nluc [1] = target: T1, BPTF-BRD-Nluc (Homo sapiens, UniProt Q12830); assay: Competition NanoBRET target engagement, inhibitors vs MS-1 tracer on BPTF-BRD-Nluc in HEK293T cells; details: for inhibition of the BPTF-BRD in NanoBRET titration: BPTF-BRD-Nluc, 0.5 μM MS-1
Excerpt: One assay which can be used to determine bromodomain inhibitor engagement in live cells is known as NanoBRET based on bioluminescent resonance energy transfer. NanoBRET requires a nanoluciferase (Nluc) enzyme to be fused to a protein of interest at either the N- or C-terminus of the protein and expressed in cells. Secondly, a small molecule tracer must be developed which contains the protein ligand, linker, and fluorophore. […] The ligand binds to the protein, and the BODIPY fluorophore has a structural requirement to be in proximity of less than 10 nm to the Nluc enzyme. Finally, when the Nluc substrate furimazine is added, Nluc oxidatively converts the substrate into furimamide, CO2, and light.[7],[8] The energy from the bioluminescence can be transferred to the BODIPY fluorophore leading to the BRET signal. When unlabeled bromodomain inhibitors are added, the tracer is displaced resulting in a dose-dependent reduction in BRET (Figure 1A).
MS-1 was next assessed for its utility in a competition-based NanoBRET experiment for the determination of live cell bromodomain engagement.
HEK293T Cell Culture and Transfection
(§1) HEK293T cells were cultured in DMEM, 10% FBS, 5% penicillin-streptomycin and incubated at 37 °C with 5% CO 2. The NanoBRET assay was executed based on the Promega NanoBRET TE 590 Dyes technical protocol. HEK293T cells (200,000 cells/mL) were transiently transfected with each target-NanoLuc fusion vector. A 10 μg/mL solution of lipid:DNA complexes containing each fusion vector were prepared with 9.0 μg/mL of transfection carrier DNA (Promega), 1.0 μg/mL of target-NanoLuc fusion vector DNA
(§2) (Promega), and 1 mL of Opti-MEM I. FuGENE HD Transfection Reagent (Promega) was added at a concentration of 30 μL per mL of DNA mixture. The lipid:DNA complex mixture was inverted five times and allowed to incubate for 20 minutes at room temperature.
(§3) Lipid:DNA complex was then added to HEK293T cells in a 1:20 lipid:DNA complex to cells ratio. The subsequent mixture was inverted and dispensed into sterile tissue culture flasks at a density between 55,000 and 80,000 cells/cm 2. The cells were incubated for 20 – 30 hours at 37 °C, 5% CO 2. Following incubation, the transfected cells were then adjusted to a density of 200,000 cells/mL in Opti-MEM I.
General NanoBRET Assay Protocol
BRET assays were performed using white, 384-well tissue-culture-treated plates (Corning HEK293T cells were plated at 7 x 10^3 cells per well. Stock DMSO solutions of each novel BRET tracer to be tested were diluted in Tracer Dilution Buffer (Promega) to achieve a 20X concentration by adding 4:1 Tracer Dilution Buffer to 1 part 100X tracer.
BPTF-BRD BRET assays were conducted using a final MS-1 concentration of 0.5 μM, and PCAF, GCN5, and CECR2 used a final MS-1 concentration of 1 μM. Stock DMSO solutions of inhibitors were diluted to a 1,000X concentration in 100% DMSO and subsequently dissolved to a final 10X concentration in Opti-MEM. Upon addition of the tracer and inhibitor, the cells were incubated for 2 hours at 37 °C, 5% CO 2.

[2] = legend calls it literature permeability data; cited from earlier work
BPTF-BRD [3] = target: T2, BPTF-BRD (Homo sapiens, UniProt Q12830); details: ITC; cited from earlier work
BPTF-BRD [4] = target: T2, BPTF-BRD; design: method as in PMID 34375106; details: read-out: Lit. Values: BRET EC50; cited from earlier work
[5] = target: class I bromodomains PCAF, GCN5, and CECR2; design: method as in PMID 34515477; details: off-target activity; read-out: affinities for the other class I bromodomains; cited from earlier work
PCAF-Nluc = target: T3, PCAF-Nluc (Homo sapiens, UniProt Q92831); assay: Competition NanoBRET on full-length PCAF-Nluc with MS-1 in HEK293T cells; format: cell-based
T3 construct: two constructs of full-length PCAF containing either N- or C-terminal Nluc; host or cells: HEK293T
T3 sequence (Q92831 whole entry): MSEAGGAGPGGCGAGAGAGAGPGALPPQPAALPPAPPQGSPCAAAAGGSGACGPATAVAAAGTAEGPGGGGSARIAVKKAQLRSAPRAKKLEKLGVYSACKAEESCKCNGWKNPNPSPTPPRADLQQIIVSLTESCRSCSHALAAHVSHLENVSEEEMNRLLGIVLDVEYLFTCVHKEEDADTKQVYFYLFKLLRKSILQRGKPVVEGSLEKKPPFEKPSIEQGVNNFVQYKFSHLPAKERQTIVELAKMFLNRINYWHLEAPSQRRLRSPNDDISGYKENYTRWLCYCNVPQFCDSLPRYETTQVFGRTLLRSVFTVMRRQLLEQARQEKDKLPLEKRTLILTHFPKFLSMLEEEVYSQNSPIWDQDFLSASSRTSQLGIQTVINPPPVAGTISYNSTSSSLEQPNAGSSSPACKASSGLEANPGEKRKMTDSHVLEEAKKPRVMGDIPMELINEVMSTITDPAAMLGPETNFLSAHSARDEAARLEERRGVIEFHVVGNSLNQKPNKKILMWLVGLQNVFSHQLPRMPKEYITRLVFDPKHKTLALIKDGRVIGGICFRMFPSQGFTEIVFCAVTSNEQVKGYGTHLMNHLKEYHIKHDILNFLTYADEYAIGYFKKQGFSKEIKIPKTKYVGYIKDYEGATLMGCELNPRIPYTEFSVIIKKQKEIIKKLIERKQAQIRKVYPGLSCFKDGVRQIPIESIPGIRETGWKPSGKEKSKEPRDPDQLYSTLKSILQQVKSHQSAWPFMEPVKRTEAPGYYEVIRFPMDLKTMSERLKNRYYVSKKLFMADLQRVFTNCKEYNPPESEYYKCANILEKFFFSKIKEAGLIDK
Procedure: First, engagement of MS-1 with full-length PCAF was investigated. MS-1 was titrated against two constructs of full-length PCAF containing either N- or C-terminal Nluc to determine the optimal position of the Nluc enzyme.
HEK293T Cell Culture and Transfection
as §1, §2, §3
General NanoBRET Assay Protocol […]
(§4) BPTF-BRD BRET assays were conducted using a final MS-1 concentration of 0.5 μM, and PCAF, GCN5, and CECR2 used a final MS-1 concentration of 1 μM. […] BRET was then measured in a Tecan Spark plate reader following a 30 second orbital shake with an amplitude of 1 mm and frequency of 510 rpm. Luminescence was measured using the luminescence […]
(§5) DMSO control wells with no tracer and no inhibitor for background correction as well as control wells with tracer and no inhibitor to determine the maximal assay window. For both tracer and inhibitor titration plots, a BRET ratio for each concentration was calculated as acceptor response divided by donor response. […]

GCN5-Nluc = target: T4, GCN5-Nluc (Homo sapiens, UniProt Q92830); assay: Competition NanoBRET on full-length GCN5-Nluc with MS-1 in HEK293T cells; format: cell-based
T4 construct: The C-terminal full-length GCN5-Nluc construct was titrated against MS-1; host or cells: HEK293T
T4 sequence (Q92830 whole entry): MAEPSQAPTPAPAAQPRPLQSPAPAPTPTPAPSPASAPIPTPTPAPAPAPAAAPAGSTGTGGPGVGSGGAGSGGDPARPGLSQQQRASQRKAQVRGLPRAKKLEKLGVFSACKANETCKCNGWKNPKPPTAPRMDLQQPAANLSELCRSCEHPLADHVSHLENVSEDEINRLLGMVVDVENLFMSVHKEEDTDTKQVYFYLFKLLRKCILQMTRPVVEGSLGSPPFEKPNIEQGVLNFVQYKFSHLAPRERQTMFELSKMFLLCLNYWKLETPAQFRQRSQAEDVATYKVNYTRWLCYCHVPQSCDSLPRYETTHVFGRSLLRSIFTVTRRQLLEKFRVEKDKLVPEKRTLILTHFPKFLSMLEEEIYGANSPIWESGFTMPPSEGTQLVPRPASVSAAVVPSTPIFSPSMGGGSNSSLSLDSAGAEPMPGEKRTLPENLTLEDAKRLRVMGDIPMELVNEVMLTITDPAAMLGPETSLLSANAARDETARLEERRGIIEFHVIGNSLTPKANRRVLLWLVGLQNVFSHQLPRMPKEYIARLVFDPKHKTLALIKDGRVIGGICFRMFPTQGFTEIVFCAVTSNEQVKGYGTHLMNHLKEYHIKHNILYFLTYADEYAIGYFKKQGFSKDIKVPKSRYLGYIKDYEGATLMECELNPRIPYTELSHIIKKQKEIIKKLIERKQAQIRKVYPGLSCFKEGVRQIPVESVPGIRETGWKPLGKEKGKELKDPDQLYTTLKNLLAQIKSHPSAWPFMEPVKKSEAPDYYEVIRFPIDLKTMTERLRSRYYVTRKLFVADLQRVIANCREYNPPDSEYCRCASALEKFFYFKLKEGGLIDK
Procedure: HEK293T Cell Culture and Transfection
as §1, §2, §3
General NanoBRET Assay Protocol […]
BPTF-BRD BRET assays were conducted using a final MS-1 concentration of 0.5 μM, and PCAF, GCN5, and CECR2 used a final MS-1 concentration of 1 μM. […] BRET was then measured in a Tecan Spark plate reader following a 30 second orbital shake with an amplitude of 1 mm and frequency of 510 rpm.
as §5

PCAF = target: PCAF; design: method as in PMID 27966810; details: read-out: literature Kd; cited from earlier work
BPTF-BRD-Nluc [6] = target: T1, BPTF-BRD-Nluc; assay: NanoBRET tracer titration against BPTF-BRD-Nluc in HEK293T cells; format: cell-based; details: for EC50: tracer titrated against BPTF-BRD-Nluc, HEK293T cells, n=2
BPTF-BRD [7] = target: T2, BPTF-BRD; assay: Kinetic NanoBRET measurement of tracer kon, koff and Kd with the BPTF-BRD; format: cell-based
Procedure: Figure 3. A) Tracer titration plots against BPTF-BRD-Nluc in HEK293T cells and their EC50 values. *second replicate EC50 could not be determined due to an incomplete curve. B) Kinetics data with MS-1 at varying concentrations over 25 minutes (truncated from 1 hour). C) Linear plot of kobs values at each concentration of MS-1. The kon and koff values were determined from the linear fit equation and were used to calculate the Kd. D) BI-7190 titration plots at various MS-1 concentrations to determine ideal assay window. EC50 values of BI-7190 are reported at various MS-1 concentrations. All graphical data represents mean ± standard deviation where A, B, and C are technical duplicates with n=2, and D is reported as a technical duplicate with n=3. […] (μM) of the same panel. / Panel D: the concentration row of the table is headed [BI-7190] as printed; it is unclear whether 2, 1, 0.5 and 0.25 μM are concentrations of BI-7190 or of another substance.
Before testing inhibitors, the Kd value of the tracer with the BPTF-BRD was measured kinetically by determining the kon and koff rates of the NanoBRET tracer. The Kd of the tracer enables the conversion of EC50 values to apparent Ki values. Varying concentrations of MS-1 were dosed, and measurements were taken every 35 seconds over the course of one hour (Figure 3B). The association of MS-1 with the BPTF-BRD was fast (~ 15 minutes). Data was fit using one-phase association and kobs values were determined for each concentration. […] This affinity is within two-fold of the EC50 derived for MS-1, indicating good cell permeability of the tracer. Additionally, this moderate affinity is an ideal range for future competition experiments.

Nluc-CECR2 = target: T5, Nluc-CECR2 (Homo sapiens, UniProt Q9BXF3); assay: Competition NanoBRET on full-length Nluc-CECR2 with MS-1 in HEK293T cells; format: cell-based
T5 construct: MS-1 was titrated against the N-terminal full length Nluc-CECR2; host or cells: HEK293T
T5 sequence (Q9BXF3 whole entry): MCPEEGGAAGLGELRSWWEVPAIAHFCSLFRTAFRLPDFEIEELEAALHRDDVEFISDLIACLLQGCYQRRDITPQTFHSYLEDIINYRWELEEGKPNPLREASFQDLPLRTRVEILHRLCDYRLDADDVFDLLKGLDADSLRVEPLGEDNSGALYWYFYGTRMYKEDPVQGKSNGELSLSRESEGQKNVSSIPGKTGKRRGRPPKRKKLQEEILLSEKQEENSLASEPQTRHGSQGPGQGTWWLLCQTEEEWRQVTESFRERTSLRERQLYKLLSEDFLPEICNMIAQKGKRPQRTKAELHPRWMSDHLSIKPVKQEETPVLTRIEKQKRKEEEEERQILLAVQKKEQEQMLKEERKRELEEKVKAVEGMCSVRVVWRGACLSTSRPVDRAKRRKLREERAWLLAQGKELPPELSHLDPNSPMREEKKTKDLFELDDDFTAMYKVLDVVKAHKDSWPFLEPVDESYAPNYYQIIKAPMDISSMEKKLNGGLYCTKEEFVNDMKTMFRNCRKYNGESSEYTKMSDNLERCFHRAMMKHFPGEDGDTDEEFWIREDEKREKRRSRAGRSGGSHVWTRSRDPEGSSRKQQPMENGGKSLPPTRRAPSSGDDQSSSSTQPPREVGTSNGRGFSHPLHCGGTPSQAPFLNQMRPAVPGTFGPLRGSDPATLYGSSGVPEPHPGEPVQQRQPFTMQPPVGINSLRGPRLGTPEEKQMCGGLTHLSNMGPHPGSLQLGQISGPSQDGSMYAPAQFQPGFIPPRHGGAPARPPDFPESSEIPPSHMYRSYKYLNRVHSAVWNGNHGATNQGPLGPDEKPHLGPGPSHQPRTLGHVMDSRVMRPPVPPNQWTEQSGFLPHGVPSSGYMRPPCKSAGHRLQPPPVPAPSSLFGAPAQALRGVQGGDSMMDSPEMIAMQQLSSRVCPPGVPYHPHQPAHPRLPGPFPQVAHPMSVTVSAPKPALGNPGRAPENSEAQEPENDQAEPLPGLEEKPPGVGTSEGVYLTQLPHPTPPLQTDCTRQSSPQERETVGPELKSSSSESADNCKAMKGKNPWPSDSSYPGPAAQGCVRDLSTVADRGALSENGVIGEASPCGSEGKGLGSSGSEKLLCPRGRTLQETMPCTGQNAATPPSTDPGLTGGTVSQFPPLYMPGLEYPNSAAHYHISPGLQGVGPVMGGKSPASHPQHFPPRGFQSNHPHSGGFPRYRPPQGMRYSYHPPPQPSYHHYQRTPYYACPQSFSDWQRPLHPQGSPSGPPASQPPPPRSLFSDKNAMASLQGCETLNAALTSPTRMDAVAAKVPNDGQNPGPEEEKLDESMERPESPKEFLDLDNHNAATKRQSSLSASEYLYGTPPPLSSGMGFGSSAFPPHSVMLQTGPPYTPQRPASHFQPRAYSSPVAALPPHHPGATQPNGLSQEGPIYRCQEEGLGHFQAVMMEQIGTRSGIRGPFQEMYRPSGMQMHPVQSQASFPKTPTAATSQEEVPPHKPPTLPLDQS
Procedure: MS-1 was titrated against the N-terminal full length Nluc-CECR2.
HEK293T Cell Culture and Transfection
as §1, §2, §3
General NanoBRET Assay Protocol […]
as §4, §5

[8] = design: method as in PMID 34146702; details: reported PAMPA data; cited from earlier work
[9] = known from the literature; cited from earlier work
BPTF-BRD [10] = target: T2, BPTF-BRD; assay: In vitro AlphaScreen competitive inhibition; format: biochemical; details: for IC50: in vitro, BPTF-BRD
[11] = Caco-2 cell-based permeability assay; format: in vitro ADME; details: human, Caco-2, pH 7.4, 2 h at 37 °C
Procedure: Figure S6. MS-1 titration against Nluc-CECR2 in the presence of either DMSO (purple) or
compound 4 (black) at 100 μM.
Caco-2 Cell-Based Permeability Assay
The Caco-2 permeability assay was conducted as previously described
(PMID: 36793425). Briefly, Caco-2 cells were maintained at 37 °C in a humidified
incubator with 5% CO2, cultured in MEM supplemented with 10% FBS, 100 units/ml of
penicillin, and 100 μg/ml of streptomycin in 75 cm 2 flasks. Cells were seeded onto 96-well
Transwell inserts at a density of 0.165×10^5 cells/insert and cultured for an additional 7
days. Monolayers were washed twice with HBSS/HEPES (10 mM, pH 7.4) before starting
the permeability assay. To initiate the assay, a 10 μmol/L solution of each test compound
was added to either the apical (A) or basolateral (B) side of the inserts. The monolayers
were incubated for 2 h at 37 °C. Samples were collected from both compartments and
compound concentrations were measured by UPLC/MS (Waters; Milford, MA). All
compounds were tested in triplicates.
The apparent permeability coefficient (Papp, cm/s) of each compound in the A→B (or
B→A) direction was calculated using the equation: […]
where dQ/dt is the flux (μmol/s), A is the surface area (cm 2), and C0 is the initial
Chromatographic separation was performed on a Waters Acquity UPLC system coupled
to an SQ mass spectrometer. […]
recording was used for quantification of each compound.

[12] = BRET EC50, BPTF-BRD-Nluc, 0.5 μM MS-1, HEK293T cells, n=2

With `COC(=O)c1cccc(NC(=O)NC2CCN(c3ccnc(Nc4ccc(F)cc4)n3)C2)c1` (racemic) [AU1 (Rac)] the “inhibition of the BPTF-BRD in NanoBRET titration” value (BPTF-BRD-Nluc [1]) was “neither showed full inhibition”.

In the case of `COc1cc(-c2cn(C)c(=O)c(C)c2C)ccc1C1(N2CCN(C)CC2)CC1` [BI-7190], the “Caco-2 or PAMPA: Caco-2” value [2] is given as 21 10^-6 cm/s, the Kd (BPTF-BRD [3]) is given as 0.085 µM and the EC50 (BPTF-BRD [4]) is given as 0.058 µM. It also gave an EC50 (BPTF-BRD-Nluc [1]; [12]) of 0.066 ± 0.003 µM, an EC50 (BPTF-BRD-Nluc [1]; EC50, printed [BI-7190]: 0.25 μM (MS-1 concentration per legend), n=3) of 0.07 ± 0.01 µM and an EC50 (BPTF-BRD-Nluc [1]; EC50, printed [BI-7190]: 0.5 μM (MS-1 concentration per legend), n=3) of 0.1 ± 0.01 µM. The EC50 (BPTF-BRD-Nluc [1]; EC50, printed [BI-7190]: 1 μM (MS-1 concentration per legend), n=3) was 0.16 ± 0.02 µM and the EC50 (BPTF-BRD-Nluc [1]; EC50, printed [BI-7190]: 2 μM (MS-1 concentration per legend), n=3) was 0.2 ± 0.01 µM.

For `Cn1ncc(Nc2ccc(CCN)cc2)c(Cl)c1=O` [BZ1], the “Caco-2 or PAMPA: Caco-2” value [2] is listed as 0.9 ± 5 10^-6 cm/s and the Kd [5] is listed as 0.011 to 0.044 µM.

Compound `CN(C)CCCn1ccc2cc(-c3nc(S(C)(=O)=O)nc4[nH]ccc34)ccc21` [DC-BPi-11] has an EC50 (BPTF-BRD-Nluc [1]; [12]) of 0.45 ± 0.02 µM.

For `Cc1nnc2c3ccccc3c(N[C@@H](C)[C@H](c3ccccc3)N(C)C)nn12` [L-Moses, reference compound], the EC50 (PCAF-Nluc; PCAF-Nluc, 1 μM MS-1, n=2, read-out: BRET EC50) is listed as 0.28 ± 0.05 µM, the EC50 (GCN5-Nluc; GCN5-Nluc, 1 μM MS-1, n=2, read-out: BRET EC50) is listed as 0.5 ± 0.06 µM and the Kd (PCAF) is listed as 0.126 µM.

For `Cn1ncc(Nc2ccc3c(c2)CCN(CCCCNC(=O)CCc2ccc4n2[B-](F)(F)[N+]2=C(c5ccc[nH]5)C=CC2=C4)C3)c(Cl)c1=O` [MS-1], the “competition of tracer by compound 4 (non-specific interactions)” value (“competition … (non-specific interactions)” for short) (BPTF-BRD-Nluc [6]; BPTF-BRD-Nluc, 25X molar excess of 4 (100 μM)) was “largely competed away”, the EC50 (BPTF-BRD-Nluc [6]) was 0.6 ± 0.1 µM and the assay window (BPTF-BRD-Nluc [6]; tracer titration, BPTF-BRD-Nluc construct) was 60 mBu. It also gave a koff (BPTF-BRD [7]; linear fit of kobs vs [MS-1]) of 0.00181 ± 3e-05 s⁻¹, a kon (BPTF-BRD [7]; linear fit of kobs vs [MS-1]) of 1800 ± 400 M⁻¹ s⁻¹ and a Kd (BPTF-BRD [7]; measured kinetically, calculated from kon and koff) of 1.1 ± 0.3 µM. The “association with the BPTF-BRD (time)” value (BPTF-BRD [7]; measurements every 35 seconds over one hour) was ~ 15 minutes, the assay window (PCAF-Nluc; 1 μM MS-1, PCAF-Nluc) was about 20 mBu and the “competition … (non-specific interactions)” value (PCAF-Nluc; PCAF-Nluc, 4 at 100 μM) was “competed away”. The assay window (GCN5-Nluc; 1 μM MS-1, GCN5-Nluc) was about 20 mBu, the “competition … (non-specific interactions)” value (GCN5-Nluc; GCN5-Nluc, 4 at 100 μM) was “competed away” and the assay window (Nluc-CECR2; 1 μM MS-1, Nluc-CECR2) was “around 20 mBu”. For the same compound, the “competition … (non-specific interactions)” value (Nluc-CECR2; Nluc-CECR2, 4 at 100 μM) was “less-efficient competition” and the assay window (BPTF-BRD-Nluc [1]; 0.5 μM MS-1, BPTF-BRD-Nluc) was about 30 mBu.

`Cn1ncc(Nc2ccc3c(c2)CCN(CCCCNC(=O)CCCNC(=O)CCc2ccc4n2[B-](F)(F)[N+]2=C(c5ccc[nH]5)C=CC2=C4)C3)c(Cl)c1=O` [MS-2] showed an EC50 (BPTF-BRD-Nluc [6]) of 3.3 ± 0.1 µM.

Compound `Cn1ncc(Nc2ccc3c(c2)CCN(CCCCNC(=O)CCOCCOCCOCCOCCNC(=O)CCc2ccc4n2[B-](F)(F)[N+]2=C(c5ccc[nH]5)C=CC2=C4)C3)c(Cl)c1=O` [MS-3] has an EC50 (BPTF-BRD-Nluc [6]) of 3.7 µM.

In the case of `Cc1c(Nc2ccc(S(=O)(=O)N3CCN(C)CC3)cc2F)nc2ccc(-c3cnn(C4CC4)c3)cn2c1=O` [NVS-BPTF-1], the “Caco-2 or PAMPA: PAMPA” value [8] is given as 16 10^-6 cm/s, the solubility [9] is given as “poor solubility” and the EC50 (BPTF-BRD-Nluc [1]; [12]) is given as 0.4 ± 0.05 µM.

With `COC(=O)c1cccc(NC(=O)N[C@H]2CCN(c3ccnc(Nc4ccc(F)cc4)n3)C2)c1` [S-AU1] the “inhibition of the BPTF-BRD in NanoBRET titration” value (BPTF-BRD-Nluc [1]) was “neither showed full inhibition”.

In the case of `CN(C)CCCOc1ccc(-c2cc(NCCCn3cccn3)nc(S(C)(=O)=O)n2)cc1` [TP-238], the EC50 (Nluc-CECR2; Nluc-CECR2, n=2, MS-1 1 μM in text and SI, 0.5 μM in Figure 6 legend, read-out: BRET EC50) is given as 0.62 ± 0.06 µM, the “Caco-2 or PAMPA: PAMPA” value [8] is given as 28 10^-6 cm/s and the EC50 (BPTF-BRD-Nluc [1]; [12]) is given as 1.2 ± 0.1 µM.

With `CN1CCc2cc(Nc3cnn(C)c(=O)c3Cl)ccc2C1` [compound 4] the IC50 (BPTF-BRD [10]) was 0.26 µM, the Papp at 2 h, 10 μmol/L [11] was 47 ± 20 ×10⁻⁶ cm/s and the EC50 (BPTF-BRD-Nluc [1]; [12]) was 0.9 ± 0.2 µM.

In the case of `CN1CCc2cc(Nc3ncn(C)c(=O)c3Cl)ccc2C1` [compound 5], the “fold lower affinity in vitro” value (BPTF-BRD [10]; compound 5 compared with compound 4, AlphaScreen IC50) is reported as 2.5 fold, the IC50 (BPTF-BRD [10]) is reported as 0.66 ± 0.04 µM and the Papp at 2 h, 10 μmol/L [11] is reported as 70 ± 80 ×10⁻⁶ cm/s. The EC50 (BPTF-BRD-Nluc [1]; [12]) was 1.4 ± 0.2 µM and the “fold lower affinity in cells” value (BPTF-BRD-Nluc [1]; compound 5 compared with compound 4, NanoBRET EC50) was 1.5 fold.

Work on `CN1CCc2ccc(Nc3cnn(C)c(=O)c3Cl)cc2C1` [compound 6] yielded an IC50 (BPTF-BRD [10]) of 2.1 µM and an EC50 (BPTF-BRD-Nluc [1]; [12]) of 4 ± 0.3 µM.
